Data reported in paper PMC9501129 (Pharmaceutics, 2022).
Where two headings read alike, the source gives them in different places.

How the values were obtained:
[1] = Amniotic fluid drug concentration in mouse pregnancy model (HPLC-MSMS); assay type: in vivo, C57BL/6J mice; details: female, C57BL/6J, mouse, amniotic fluid / maternal plasma, oral, pregnant mice
Excerpt: All animal experiments were approved by the University Health Network Animal Use Committee (protocol #2575) and performed according to the policies and guidelines of the Canadian Council on Animal Care. C57BL/6J mice bred in-house (original breeders from Jackson Laboratory RRID:IMSR JAX:000664) were maintained under a 12-h light/dark cycle, with ad libitum access to food and water. Animals were acclimated to their surroundings for 1 week prior to experiment initiation. Males were isolated for 7 days prior to mating. Female mice (7–12 weeks of age) were mated with males at a ratio of 2:1. Presence of vaginal plug was denoted as gestational day 0.5 (GD0.5). Pregnancy was confirmed by weight gain of >1.5 g on GD9.5 and >3 g on GD13.5. […] The equivalent mouse mg/kg dose was calculated based on the human dose divided by an assumed average human weight of 60 kg. […] On GD15.5, mice underwent saphenous bleed 24 h after the GD14.5 dose administration (trough). Immediately after the saphenous bleed, mice were dosed with the appropriate drug regimen and sacrificed 1 h post-treatment (peak), at which time blood was collected by cardiac puncture and amniotic fluid was collected by dissecting the uterus, puncturing the amniotic sac, and draining the amniotic fluid into a sterile dish. Amniotic fluid was pooled for the entire litter. Samples from 2 dams per arm were analyzed for drug levels.
Briefly, 50 μL of plasma or amniotic fluid was spiked with internal standard (ritonavir-d6) followed by protein precipitation with acetonitrile and filtration. Filtrates were diluted 1:9 with ammonium acetate buffer (10 mM) and analyzed by the HPLC-MSMS system, consisting of a Shimadzu Nexera XR high-performance liquid chromatograph (Shimadzu, Columbia, MD, USA) coupled with a SCIEX API 4500 QqQ mass spectrometer (SCIEX, Concord, ON, Canada). Chromatographic separation by Mobile Phase A (10% methanol, 5% 50 mM ammonium acetate, 85% 0.25% acetic acid pH 3.6 ± 0.2) and Mobile Phase B (90% methanol, 5% 50 mM ammonium acetate, 5% 0.25% acetic acid pH 6.6 ± 0.2) was performed under linear gradient conditions (flow rate 0.7 mL/min) on a reverse-phase Zorbax XDB-C18 column (Agilent Technologies, Santa Clara, CA, USA) maintained at 40 °C. […] HPLC-MSMS data were acquired using Analyst (v 1.6.3, SCIEX, Concord, ON, Canada) and analyzed with MultiQuant software (v 3.0.3, SCIEX, Concord, ON, Canada). […] Positive controls spiked in-house and prepared by an external laboratory during a sample exchange program were included in all runs.

pregnant rabbits = details: cited from earlier work
pregnant rats [2] = details: BIC orally 5, 30, or 300 mg/kg/day, gestational day 7 through 17; cited from earlier work
pregnant rats [3] = details: BIC orally up to 300 mg/kg/day, gestational day 6 to lactation/postpartum day 24; cited from earlier work
[4] = ex-vivo dually perfused human cotyledon; cited from earlier work
[5] = cited from earlier work
HIV = details: compared to RAL and EVG; cited from earlier work

| SMILES | Kp at 1 h ([1]; 1× to 10× BIC, 1 h after dosing, read-out: Ratio of drug in the amniotic fluid to that in maternal plasma) | Kp at 1 h ([1]; 20× BIC dose, 1 h after dosing, read-out: Ratio of drug in the amniotic fluid to that in maternal plasma) | Kp at 1 h ([1]; BIC 0.83 mg/kg (1×) oral gavage once daily GD11.5-GD15.5 with TDF 50 mg/kg + FTC 33.3 mg/kg, mean (SD), n=2, read-out: Amniotic: Maternal Plasma Ratio 1 h) | Kp at 1 h ([1]; BIC 4.15 mg/kg (5×) oral gavage once daily GD11.5-GD15.5 with TDF 50 mg/kg + FTC 33.3 mg/kg, mean (SD), n=2, read-out: Amniotic: Maternal Plasma Ratio 1 h) | Kp at 1 h ([1]; BIC 8.3 mg/kg (10×) oral gavage once daily GD11.5-GD15.5 with TDF 50 mg/kg + FTC 33.3 mg/kg, mean (SD), n=2, read-out: Amniotic: Maternal Plasma Ratio 1 h) | Kp at 1 h ([1]; BIC 16.6 mg/kg (20×) oral gavage once daily GD11.5-GD15.5 with TDF 50 mg/kg + FTC 33.3 mg/kg, mean (SD), n=2, read-out: Amniotic: Maternal Plasma Ratio 1 h) | Maternal and pregnancy findings (pregnant rabbits; BIC 1000 mg/kg/day) | Embryo-fetal effects (pregnant rabbits; BIC orally 100, 300, or 1000 mg/kg/day, gestational day 7 through 19) | Embryo-fetal effects (pregnant rats [2]) | Adverse effects in fetuses or pups (pregnant rats [3]) | Placental transfer [4] | Birth defects observed ([5]; interim report, 140 pregnancies in women treated with BIC during periconception or pregnancy) | Virological suppression through delivery ([5]; two pregnant women on BIC) | In vitro resistance profile (HIV) | Drug levels in pregnancy ([5]; second and third trimester) |
| --- | --- | --- | --- | --- | --- | --- | --- | --- | --- | --- | --- | --- | --- | --- | --- |
| O=C(NCc1c(F)cc(F)cc1F)c1cn2c(c(O)c1=O)C(=O)N1[C@H]3CC[C@H](C3)O[C@@H]1C2 [BIC, bictegravir] | 0.021 to 0.036 | 0.112 | 0.021 | 0.021 | 0.036 | 0.112 | Spontaneous abortion, decreased body weight, and maternal toxicity | no adverse embryo-fetal effects | no adverse embryo-fetal effects | no significant adverse effects in fetuses or pups | low placental transfer | three | remained virologically suppressed through delivery | improved in vitro resistance profile |  |
| COc1cc2c(cc1Cc1cccc(Cl)c1F)c(=O)c(C(=O)O)cn2[C@H](CO)C(C)C [EVG, elvitegravir] |  |  |  |  |  |  |  |  |  |  |  |  |  |  | inadequate levels in the second and third trimester |
